The subject of data set [1] is control and X-ALD patient fibroblasts. As to the kind of experiment: Pulse-chase degradation of long-lived proteins in fibroblasts treated with VLCFA. In kind it is cell-based, human. Conditions: C26:0 50 μM 24 h, high proteolysis medium; for inhibition at 50 µM: Homo sapiens, Fibroblast, control fibroblasts. The protocol: (§1) Skin biopsies to prepare fibroblasts were collected according to the institutional guidelines for sampling, including informed consent from the persons involved or their representatives. Primary human fibroblasts were cultured in DMEM (containing 10% fetal bovine serum, 100 U/ml penicillin and 100 μg streptomycin) at 37° C. in humidified 5% CO2/95% air. Unless otherwise stated, experiments were carried out with cells at 80% confluence. For starvation conditions (high proteolysis medium, H), cells were switched, after washing, from full growth medium (see above, low proteolysis medium, L) to Krebs-Henseleit medium (118.4 mM NaCl, 4.75 mM KCl, 1.19 mM KH2PO4, 2.54 mM MgSO4, 2.44 mM CaCl2.2H2O, 28.6 mM NaHCO3, 10 mM glucose) containing 10 mM Hepes, pH 7.4 (high proteolysis medium, H) and incubated for 4 h or less at 37° C.
For pulse-chase experiments, human control and X-ALD patient fibroblasts were incubated for 48 h in fresh full medium with 1 μCi/ml [3H]valine (Hartmann Analytic Gmbh), followed by a 24 h chase in fresh full medium containing 10 mM L-valine to degrade short-lived proteins. Then, all cultures were incubated for the indicated times in Krebs-Henseleit medium with 10 mM Hepes, pH 7.4, containing 10 mM valine and the indicated additions. Protein degradation, which was analysed 1 h later to ensure maximal effects of the various additions and for only 3 h to avoid possible secondary effects, was calculated at two intervals of 1.5 h by measuring the net release of trichloroacetic acid-soluble radioactivity from the labelled cells into the culture medium and expressed as percentage of protein degraded. The contribution of lysosomal degradation to total protein degradation was calculated using 20 mM NH4Cl (Sigma-Aldrich) plus 100 μM leupeptin (Peptide Institute), as previously described (Fuertes G, et al, 2003, Biochem J 375, 75-86).
In X-ALD, VLCFA accumulate. The effect of the addition of an excess of hexacosanoic acid to fibroblasts isolated from controls and X-ALD patients was tested. First, the degradation of intracellular proteins was analyzed to determine if it was any alteration in control and X-ALD fibroblasts upon addition of an excess of VLCFA, by analyzing in pulse-chase experiments the degradation of long-lived proteins under starvation. Total protein degradation and also, separately, lysosomal protein degradation were estimated by procedures previously described (Fuertes G, et al, 2003, Biochem J 375, 75-86).

For data set [2], the system named is control and X-ALD fibroblasts. As to the kind of experiment: Immunoblot of LC3-II and p62 in fibroblasts treated or not with VLCFA. In kind it is cell-based, human. The conditions noted are these: excess of VLCFA. The protocol:
as §1
(§2) Tissues were removed from euthanized mice and flash-frozen on liquid nitrogen. Frozen tissues and human fibroblasts samples were homogenized in RIPA buffer (Cell Signaling Technology) using a motor-driven grinder (Sigma-Aldrich), and then sonicated for 2 min at 4° C. in an Ultrasonic processor UP50H (Hielscher-Ultrasound Technology). Samples were subjected to polyacrylamide (10% acrylamide) gel electrophoresis for 60 min at […]. Resolved proteins were transferred onto nitrocellulose membranes and proteins were detected with ECL Western blotting analysis system followed by exposure to CL-XPosure Film (Thermo Scientific). Autoradiographs were scanned and quantified using a GS800 Densitometer (Bio-Rad).
Then, the LC3-II and p62 levels in cell extracts from control and X-ALD fibroblasts treated or not with VLCFA were determined by immunoblot analysis.
(In general: A western blot detects proteins with antibodies after separation by electrophoresis.)

For data set [3] the following is noted: cited from earlier work.
The subject of the next data set is Abcd1 null mice. As to the kind of experiment: Dose tests of temsirolimus in Abcd1 null mice (body response, weight). In kind it is in vivo, mouse. An excerpt: (§3) All methods employed in this study were in accordance with the Guide for the Care and Use of Laboratory Animals published by the US National Institutes of Health (NIH publication No. 85-23, revised 1996) and the ethical committees of IDIBELL and the Generalitat de Catalunya. The generation and genotyping of Abcd1 null mice have been previously described. Mice used for experiments were on a pure C57BL/6J background. Abcd1 null and wild type mice were separated into control and treated groups. Temsirolimus (LC laboratories) was administered by intraperitoneal injections three times a week at a dose of 20 mg/kg for 3 months with alternate 3-weeks rest periods between each month of treatment. Control mice were given a placebo injection containing buffer only with the same frequency. Treadmill test was carried out exactly as previously described (López-Erauskin J, et al, 2011, Ann Neurol 70, 84-92). The latency to falling off the belt (time of shocks in seconds) and the number of received shocks were measured. Bar cross test was performed as previously described (López-Erauskin J, et al, 2011, Ann Neurol 70, 84-92). Placebo and drug treated mice within each litter were tested on the treadmill simultaneously and at the time of testing were not identified as to their treatment status.
10 month-old Abcd1 null mice were treated with temsirolimus, or vehicle (control), administered by intraperitoneal injection as described previously. Doses tests in order to check mice's body response was firstly performed. […] Thus, to prevent side effects other treatment conditions: intraperitoneal injections of temsirolimus for 3 months with alternate 3-weeks rest periods between each month of treatment, were tested.

Data set [4] has as its system Abcd1−/−/Abcd2−/− mice. As to the kind of experiment: Immunohistochemistry of axonal degeneration markers in spinal cord of Abcd1−/−/Abcd2−/− mice. In kind it is in vivo, mouse.
Description: as §3
Spinal cords were harvested from 20-month-old mice (wild type, Abcd1−/−/Abcd2−/− and Abcd1−/−/Abcd2−/− treated with temsirolimus), after perfusion with 4% paraformaldehyde and prepared and incubated for immunohistochemistry as described (López-Erauskin J, et al, 2011. Ann Neurol 70, 84-92).

Data set [5] has as its system Abcd1−/−/Abcd2−/− mice. As to the kind of experiment: Bar cross test. Format: in vivo, mouse. The conditions noted are these: Abcd1−/−/Abcd2−/− mice at 20 months of age.
The subject of data set [6] is Abcd1−/− mouse spinal cord. Kind of data set: Oxidized proteins, ATP levels, proteasome activity and immunoproteasome subunits in spinal cord of temsirolimus-treated Abcd1−/− mice. The conditions noted are these: temsirolimus 20 mg/kg i.p. In kind it is in vivo.
Description: as §3
Total RNA was isolated from homogenized spinal cord using the RNeasy mini kit (Qiagen), according to the manufacturer's instructions. RNA samples with RNA Integrity Number (RIN) above 8 and 28S/18S ratio higher than 1 were used for the experiments. Then, first strand cDNA was synthesized for each RNA sample using Superscript II reverse transcriptase (Invitrogen) and random primers. The expression of the candidate proteasome genes was analysed by RQ-PCR using TaqMan® Gene Expression Assays (Applied Biosystems).
Relative quantitation was carried out using the ‘Delta-Delta Ct’ (ΔΔCt) method with tubby RNA as endogenous control. Transcript quantification was performed in duplicate for each sample.
as §2
ATP levels were measured as previously described (Galino J, et al 2011, Antioxid Redox Signal 15, 2095-2107). For proteasome activity assays, tissues were homogenized in an ice-cold buffer (50 mM Tris-HCl pH 7.5, 1 mM dithiothreitol, 0.25 M sucrose, 5 mM MgCl2, 0.5 mM EDTA with 2 mM ATP), using a teflon-on-glass homogenizer, and centrifuged at 12,000×g for 10 min. Chymotrypsin-like activity of proteasomes was determined as described (Launay N, et el, 2013 Brain 136, 891-904), using Suc-LLVY-AMC as substrate. […] The free AMC fluorescence was quantified with a fluorescence multiplate FLUOstar OPTIMA FL reader (BMG) with excitation and emission wavelengths at 380 and 460 nm, respectively. […] All reactions were carried out in duplicate and readings were calibrated using standard solutions of the fluorophores.

For data set [7], the system named is Abcd1−/− mouse spinal cord. Kind of data set: Western blot of autophagy markers LC3-II and p62 in spinal cord of treated Abcd1−/− mice. In kind it is in vivo. Conditions: temsirolimus 20 mg/kg i.p. three times a week, 3 months with rest periods.
Description: as §3, with “Bar cross test was performed as previously described (López-Erauskin J, et al, 2011, Ann Neurol 70, 84-92). Placebo and drug treated mice within each litter were tested on the treadmill simultaneously and at the time of testing were not identified as to their treatment status.” left out
(§4) Tissues were removed from euthanized mice and flash-frozen on liquid nitrogen. […] Resolved proteins were transferred onto nitrocellulose membranes and proteins were detected with ECL Western blotting analysis system followed by exposure to CL-XPosure Film (Thermo Scientific). Autoradiographs were scanned and quantified using a GS800 Densitometer (Bio-Rad).

The subject of data set [8] is Abcd1−/−/Abcd2−/− mice. Kind of data set: Treadmill test. Conditions: Abcd1−/−/Abcd2−/− mice at 20 months of age. Format: in vivo, mouse.
A further data set has as its system mTOR. As to the kind of experiment: p70S6K phosphorylation (mTOR activity) by Western blot in spinal cord of treated Abcd1−/− mice. Format: in vivo, mouse. Conditions: temsirolimus 20 mg/kg i.p. three times a week, 3 months with rest periods.
Description: as §3, with “Bar cross test was performed as previously described (López-Erauskin J, et al, 2011, Ann Neurol 70, 84-92). Placebo and drug treated mice within each litter were tested on the treadmill simultaneously and at the time of testing were not identified as to their treatment status.” left out
as §4

Where [9] appears, read: intraperitoneal injections for 3 months with alternate 3-weeks rest periods between each month.
Where [10] appears, read: spinal cord, 20-month-old Abcd1−/−/Abcd2−/− mice, to control levels.
The mark [11] stands for this setting: spinal cord, Abcd1−/−/Abcd2−/− mice, to control levels, data not shown.
Where [12] appears, read: RT-PCR, Abcd1−/− mouse spinal cord.

Read-outs that look alike come from different tables or passages of the source.

For orientation: inhibition means the drop in the measured response relative to a control, in per cent. Regarding `CCCCCCCCCCCCCCCCCCCCCCCCCC(=O)O` [VLCFA, Hexacosanoic acid], the inhibition at 50 µM in [1] (read-out: inhibition of lysosomal degradation of long-lived proteins) is about 40%. Further, the inhibition at 50 µM in data set [1] (read-out: inhibition of total degradation of long-lived proteins) is about 15%. Also, in [1] (X-ALD fibroblasts), the “inhibition of lysosomal degradation of long-lived proteins” value is “no significant inhibitions” and the “inhibition of total degradation of long-lived proteins” value is listed as “no significant inhibitions”. In data set [2] (X-ALD fibroblasts), the LC3-II levels entry is “no significant differences” and the p62 levels result is recorded as “no significant differences”. Besides, in [2] (control fibroblasts), the LC3-II levels entry is “marked decrease” and the p62 levels entry is “increase”.

In the case of `CO[C@H]1C[C@@H]2CC[C@@H](C)[C@@](O)(O2)C(=O)C(=O)N2CCCC[C@H]2C(=O)O[C@H]([C@H](C)C[C@@H]2CC[C@@H](O)[C@H](OC)C2)CC(=O)[C@H](C)/C=C(\C)[C@@H](O)[C@@H](OC)C(=O)[C@H](C)C[C@H](C)/C=C/C=C/C=C/1C` [rapamycin], the water solubility result in data set [3] is “poor”.

`CO[C@H]1C[C@@H]2CC[C@@H](C)[C@@](O)(O2)C(=O)C(=O)N2CCCC[C@H]2C(=O)O[C@H]([C@H](C)C[C@@H]2CC[C@@H](OC(=O)C(C)(CO)CO)[C@H](OC)C2)CC(=O)[C@H](C)/C=C(\C)[C@@H](O)[C@@H](OC)C(=O)[C@H](C)C[C@H](C)/C=C/C=C/C=C/1C` [temsirolimus, (3S,6R,7E,9R,10R,12R, 14S,15E,17E,19E,21S,23S,26R,27R,34aS)-9,10,12,13,14,21,22,23,24,25,26,27,32,33,34,34a-Hexa deca hydro-9,27-dihydroxy-3-[(1R)-2-[1S,3R,4R)-4-hydroxy-3-methoxycyclohexyl]-10,21-dimethoxy-6,8,12,14,20,26-hexa meth 3H-pyrido [2,1-][1,4]oxa azaclo hentriacontine-1,5,11,28,29(4H,6H,31H)-pentone 4′-[2,2-bis (hydroxymethyl)propionate]]: the body weight result in the data set with Abcd1 null mice (continuous administration during 3 months, intraperitoneal, data not shown) is recorded as “important weight losses”. In the data set with Abcd1 null mice (setting [9]), the body weight entry is recorded as “without significant weight loss” and the locomotor performances result is “better”. The “motor neurons health in spinal cord” value in the data set on Abcd1−/−/Abcd2−/− mice [4] (XALD mice) was “improve”. In the data set on Abcd1−/−/Abcd2−/− mice [4] (setting [10]), the “accumulation of APP (axonal damage marker)” value was “reduced” and the “accumulation of synaptophysin (axonal damage marker)” value is given as “reduced”. In the data set with Abcd1−/−/Abcd2−/− mice [4] (setting [11]), the DNA oxidation entry is “reduced”, the “number of reactive astrocytes” value is on record as “reduced” and the “number of reactive microglia” value is listed as “reduced”. Besides, in the data set on Abcd1−/−/Abcd2−/− mice [5], the number of slips entry is reported as “normalized” and the “time needed to cross the bar” value is on record as “normalized”. In addition, the chymotrypsin-like proteasome activity entry in [6] (Abcd1−/− mouse spinal cord lysates) was “normalized”. Moreover, in data set [6] (Abcd1−/− mouse spinal cord), the ATP levels entry was “normalizing” and the “levels of oxidized proteins” value was “reduced considerably”. Further, in data set [6] (setting [12]), the “induction of immunoproteasome subunit β1i/LMP2” value is recorded as “prevented the induction” and the “induction of immunoproteasome subunit β5i/LMP7” value is “prevented the induction”. Moreover, in data set [7], the LC3-II levels result is “up-” and the p62 levels result is listed as “down regulated”. Moreover, in the data set with Abcd1−/−/Abcd2−/− mice [8], the “ratio between the time length of the shocks and the number of shocks” value was “normalized”. In the data set on mTOR, the “immunoreactivity for total p70S6K” value was “did not change” and the “phosphorylated p70S6K” value was “decrease”.

The values are drawn from US10071063B2, “Specific mTOR inhibitors in the treatment of X-linked adrenoleukodystrophy” (FUNDACIÓN DE LA COMUNIDAD VALENCIANA CENTRO DE …, priority 2014, dated 2018).
